# Data: patent EP0537980A1, “Cyclohexaneacetic acid derivatives as inhibitors of fibrinogen-dependent blood platelet aggregation” (GLAXO GROUP LIMITED, priority 1991, dated 1993)
# Structures can show the parent of a compound that is named as a salt.
# System: human gel filtered platelets (GFP)
# Assay: Inhibition of ADP-induced, fibrinogen-dependent blood platelet aggregation in human gel filtered platelets (GFP)
# Type: cell-based
# Settings: fibrinogen 0.5mg/ml, compounds incubated 5 minutes at 37°C, ADP 1 x 10⁻⁵M, concentration required to produce 50% inhibition of platelet aggregation, read-out: IC₅₀
# Protocol: Inhibition of blood platelet aggregation by compounds of the invention was determined according to the following procedure. Citrated whole blood (1 part 3.8% trisodium citrate: 9 parts blood) was obtained from human volunteers, free of medication for at least 10 days prior to collection. The blood was incubated with 0.1mM aspirin and 0.05µM prostacyclin and then centrifuged at 1000g for 4 minutes (20°C). The supernatant platelet rich plasma (PRP) was further centrifuged at 1300g for 10 minutes (20°C) to sediment the platelets. The supernatant was discarded and the pellet washed with a physiological salt solution (HEPES 5mM, NaHCO₃ 12mM, NaCl 140mM, KH₂PO₄ 0.74mM, D-Glucose 5.6mM, KCl 2.82mM and BSA 20g/l, pH 7.4) to remove residual plasma. After washing, the pellet was resuspended in physiological salt solution and then applied to a sepharose CL-2B column, pre-equilibrated with physiological salt solution at room temperature. The platelets (GFP) eluted within the void volume and were diluted to approximately 300,000 platelets/µl in buffer. Purified human fibrinogen (Knight L.C. et al, 1981 Thromb. Haemostasis, 46(3), 593-596) was added to a final concentration of 0.5mg/ml together with Ca2+ and Mg2+ at 1mM and 0.5mM respectively. […] The potency of the compounds may be expressed as an IC₅₀ value, defined as the concentration of compound required to produce 50% inhibition of platelet aggregation.
row,Structure (SMILES),IC50
1,"N=C(N)c1ccc(N2CCN(C3CCC(O)(CC(=O)O)CC3)CC2)c(Br)c1 (stereo not drawn) [Example 2, cis-4-[4-[4-(Aminoiminomethyl)-2-bromophenyl]-1-piperazinyl]-1-hydroxycyclohexaneacetic acid, trifluoroacetate salt]",945 nM
2,"N=C(N)c1ccc(N2CCN([C@H]3CC[C@@](O)(CC(=O)O)CC3)CC2)cn1 [Example 5, cis-4-[4-[2-(Aminoiminomethyl)-5-pyridinyl]-1-piperazinyl]-1-hydroxycyclohexaneacetic acid, trifluoroacetate salt]",220 nM
3,"N=C(N)c1ccc(N2CCN(C3CCC(O)(CC(=O)O)CC3)CC2)c(-c2ccccc2)c1 (centres unmarked) [Example 6, trifluoroacetate salt]",1550 nM
4,"N=C(N)c1ncc(N2CCN(C3CCC(O)(CC(=O)O)CC3)CC2)cn1 (stereo not drawn) [Example 3, cis-4-[4-[2-(Aminoiminomethyl)-5-pyrimidinyl]-1-piperazinyl]-1-hydroxycyclohexaneacetic acid, trifluoroacetate salt]",543 nM
5,"N=C(N)c1ccc(C2CCN(C3CCC(O)(CC(=O)O)CC3)CC2)cc1 (stereo not drawn) [Example 4, cis-4-[4-[4-(Aminoiminomethyl)phenyl]-1-piperidinyl]-1-hydroxycyclohexaneacetic acid, trifluoroacetate salt]",13 nM
